Read-outs that look alike come from different tables or passages of the source.

Data set [1] in a line: Microsomal stability (rat). The format is in vitro ADME. Particulars: rat microsomes.
Data set [2] concerns the target mTOR (Homo sapiens, UniProt P42345). Put plainly: mTOR activity (no method described). The format is biochemical.
Data set [3] has as its system Asexual parasites of P. falciparum strain 3D7. Put plainly: In vitro drug activity on asexual parasites (SYBR Green assay). It is filed as cell-based, Plasmodium falciparum. The procedure:
Cell culture. Asexual parasites of P. falciparum strain 3D7 were cultured as described previously [Trager W, et al., Journal of Parasitology 2005, 91: 484-486], Stage III-V gametocytes were selected and enriched with 3-day treatment with 50 mM N-acetylglucosamine (NAG) and the following Percoll density gradient centrifugation after gametocyte production [Tanaka T Q, et al., Molecular and Biochemical Parasitology, 2011, 111: 160-163], Gametocytes of HB3 and Dd2 strains were produced and then set up for assay in a similar process. HepG2 cells (ATCC, cat. no. 77400) were cultured in 175-cm^2 tissue culture flasks with 30 ml growth medium at 37° C. in a 5% CO2 humidified atmosphere. Growth medium was made with Dulbecco's Modified Eagle Medium with 10% fetal bovine serum (FBS). Growth medium was replaced every other day and cells were passed at 75% confluence.
Asexual parasites of P. falciparum strain 3D7 were cultured as described previously (Trager, W. et al., J. Parasitol. 2005, 91(3): 484-486). Drug activity on asexual stage parasites was tested using a SYBR Green assay as described previously (Eastman, R. T. et al., Antimicrob. Agents Chemother. 2013, 57(1): 425-435; Smilkstein, M. et al., Antimicrob. Agents Chemother. 2004, 48(5): 1803-1806). Briefly, parasites were diluted to 0.5% parasitemia in complete culture medium with 2% hematocrit and drugs diluted in DMSO (≤0.5%) and were loaded into a 96-well plate (200 μl/well). No drug and RBC alone wells were included as positive and background controls, respectively, and each testing condition was examined in duplicated. After 72 h incubation under the standard culture condition and a freeze-thaw lysis step at −80° C. and room temperature, 100 μl/well of lysis buffer containing SYBR Green I was added to the parasite culture and incubated for 30 min at room temperature. The fluorescence of each well was measured at 520 nm following excitation at 490 nm using a FLUOstar Optima™ microplate reader (BMG Labtech).

Data set [4] can be described thus: Solubility at pH 7.4. The format is physicochemical.
[5] abbreviates: P. falciparum 3D7 asexual parasites, 72 h, SYBR Green.

One may read the EC50 as the concentration that produces a half-maximal response. High values mean a less potent agent, low ones a more potent agent. Turning to `O=C(NCCN1CCNCC1)c1ccc(-n2c(=O)ccc3cnc4ccc(-c5ccc(Cl)cc5)cc4c32)cc1` [Compound 98], the “Microsomal Stability (rat) T1/2” value in data set [1] is given as more than 30 min. This molecule also yielded a mTOR in data set [2] of 0.994 µM. Also, the EC50 in data set [3] came out at 19.3 nM. The “Sol @ pH 7.4” value in data set [4] is 0 ug/mL.

As to `O=C(c1ccc(-n2c(=O)ccc3c(Cl)nc4ccc(-c5ccc(Cl)cc5)cc4c32)cc1)N1CCOCC1` [Compound 210], the “Microsomal Stability (rat) T1/2” value in data set [1] was 2.7 min. Besides, in data set [2], the mTOR came out at 100 µM. This molecule had an EC50 in data set [3] of 14500 nM. In data set [4], the “Sol @ pH 7.4” value is less than 1 ug/mL.

`COc1cc(C(=O)NCCCN2CCS(=O)(=O)CC2)ccc1-n1c(=O)ccc2cnc3ccc(-c4ccc(Cl)cc4)cc3c21` [Compound 226]: the mTOR in data set [2] was 8.446 µM. The EC50 in data set [3] stood at 208 nM.

As for `COc1cc(C(=O)NCCCN(CCO)CCO)ccc1-n1c(=O)ccc2cnc3ccc(-c4ccc(Cl)cc4)cc3c21` [Compound 227], the mTOR in data set [2] was 16 µM. For the same molecule, in data set [3], the EC50 amounted to 66.5 nM.

As to `CCN(CC)CCCNC(=O)c1ccc(-n2c(=O)ccc3cnc4ccc(-c5ccc(Cl)cc5)cc4c32)c(OC)c1` [Compound 228], the mTOR in data set [2] was found to be 11.22 µM. The same molecule had an EC50 in data set [3] of 195 nM.

Molecule `COc1cc(C(=O)NCCCN2CCCCC2)ccc1-n1c(=O)ccc2cnc3ccc(-c4ccc(Cl)cc4)cc3c21` [Compound 229] gave a mTOR in data set [2] of 19.25 µM. Moreover, the response in data set [3] was half-maximal at 232 nM (EC50).

`COc1cc(C(=O)NCCCN(C)C)ccc1-n1c(=O)ccc2cnc3ccc(-c4ccc(Cl)cc4)cc3c21` [Compound 230] came in with a mTOR in data set [2] of 50 µM. Further, the EC50 in data set [3] is 98.2 nM.

Consider `COc1cc(C(=O)NCCN2CCCC2)ccc1-n1c(=O)ccc2cnc3ccc(-c4ccc(Cl)cc4)cc3c21` [Compound 248], for which the “Microsomal Stability (rat) T1/2” value in data set [1] was determined as 10.6 min. Moreover, the mTOR in data set [2] amounted to 23.38 µM. In data set [3], a half-maximal response (EC50) required 329 nM. Besides, the “Sol @ pH 7.4” value in data set [4] was determined as 51.2 ug/mL.

Turning to `COc1cc(C(=O)NCCN2CCN(C)CC2)ccc1-n1c(=O)ccc2cnc3ccc(-c4ccc(Cl)cc4)cc3c21` [Compound 252], the mTOR in data set [2] is 100 µM.

`CN(C)CCN(C)C(=O)c1ccc(-n2c(=O)ccc3cnc4ccc(-c5ccc(Cl)cc5)cc4c32)cc1` [Compound 299] registered a mTOR in data set [2] of 5.83 µM. The EC50 in data set [3] came to 55.3 nM.

Molecule `CCN(CCN(C)C)C(=O)c1ccc(-n2c(=O)ccc3cnc4ccc(-c5ccc(Cl)cc5)cc4c32)cc1` [Compound 300] came in with a mTOR in data set [2] of 3.792 µM. Moreover, the EC50 in data set [3] is 32.7 nM.

Regarding `N#CC1(NC(=O)c2ccc(-n3c(=O)ccc4cnc5ccc(-c6ccc(Cl)cc6)cc5c43)cc2)CC1` [Compound 304], the mTOR in data set [2] worked out at 0.8535 µM. The same molecule came in with an EC50 in data set [3] of 19.2 nM.

`CCC(=O)N(CC)CCNC(=O)c1ccc(-n2c(=O)ccc3cnc4ccc(-c5ccc(Cl)cc5)cc4c32)cc1` [Compound 305] yielded a mTOR in data set [2] of 4.727 µM. The response in data set [3] was half-maximal at 483 nM (EC50).

On to `O=C(NCCC1CCN(C2COC2)CC1)c1ccc(-n2c(=O)ccc3cnc4ccc(-c5ccc(Cl)cc5)cc4c32)cc1` [Compound 306], for which the mTOR in data set [2] worked out at 8.864 µM. The molecule further gave an EC50 in data set [3] of 100 nM.

In the case of `CN1CCN(Cc2ccc(-c3ccc4ncc5ccc(=O)n(-c6ccc(C(=O)NC7CC7)cc6)c5c4c3)cc2)CC1` [Compound 307], in data set [2], the mTOR was found to be 39.9 µM. For the same molecule, the EC50 in data set [3] stood at 191 nM.

In turn, `O=C(NC1CC1)c1ccc(-n2c(=O)ccc3cnc4ccc(-c5ccc(Cl)c(F)c5)cc4c32)cc1` [Compound 308] gave a mTOR in data set [2] of 2.099 µM. In data set [3], this molecule displayed an EC50 of 23.6 nM.

In data set [2], `O=C(NCCN1CCCC1=O)c1ccc(-n2c(=O)ccc3cnc4ccc(-c5ccc(Cl)cc5)cc4c32)cc1` [Compound 309] came in with a mTOR of 3.824 µM. In data set [3], this molecule yielded an EC50 of 554 nM.

As for `CCC(=O)N(C)CCNC(=O)c1ccc(-n2c(=O)ccc3cnc4ccc(-c5ccc(Cl)cc5)cc4c32)cc1` [Compound 310], in data set [2], the mTOR was determined as 3.373 µM. For the same molecule, in data set [3], the midpoint of the response, the EC50, lay at 414 nM.

In the case of `CC(C)(O)CNC(=O)c1ccc(-n2c(=O)ccc3cnc4ccc(-c5ccc(Cl)cc5)cc4c32)cc1` [Compound 311], the mTOR in data set [2] came out at 0.1982 µM. In data set [3], the EC50 amounted to 53.3 nM.

Regarding `N#Cc1cc(-n2c(=O)ccc3cnc4ccc(-c5ccc(Cl)cc5)cc4c32)ccc1C(=O)NC1CC1` [Compound 312], the mTOR in data set [2] came out at 500 µM. The molecule also returned an EC50 in data set [3] of 1850 nM.

`Cc1cc(C(=O)NCCN2CCNCC2)ccc1-n1c(=O)ccc2cnc3ccc(-c4ccc(Cl)cc4)cc3c21` [Compound 313] registered a mTOR in data set [2] of 1.429 µM. In data set [3], this molecule gave an EC50 of 39 nM.

Molecule `Nc1nc2ccc(-c3ccc(Cl)cc3)cc2c2c1ccc(=O)n2-c1ccc(C(=O)N2CCOCC2)cc1` [Compound 314] returned a mTOR in data set [2] of 0.78 µM. For the same molecule, in data set [3], it took 429 nM to reach a half-maximal effect (EC50).

In data set [2], `O=C(NC1CC1)c1ccc(-n2c(=O)ccc3cnc4ccc(-c5ccc(Cl)cc5)cc4c32)cn1` [Compound 315] yielded a mTOR of 100 µM. This molecule came in with an EC50 in data set [3] of 137 nM.

As for `COc1cc(C(=O)NCCN(C)C)ccc1-n1c(=O)ccc2cnc3ccc(-c4ccc(F)c(O)c4)cc3c21` [Compound 316], the mTOR in data set [2] was 8.154 µM. For the same molecule, it took 412 nM to reach a half-maximal effect in data set [3] (EC50).

In data set [2], `COc1cc(C(=O)NCCN(C)C)ccc1-n1c(=O)ccc2cnc3ccc(-c4ccc(Cl)cc4)cc3c21` [Compound 317] displayed a mTOR of 8.572 µM. The molecule also gave an EC50 in data set [3] of 202 nM.

For `NC1(c2ccc(-c3ccc4ncc5ccc(=O)n(-c6ccc7c(c6)CNS7(=O)=O)c5c4c3)cc2)CC1` [Compound 383], a half-maximal effect in data set [3] (setting [5]) (EC50) was put at 62.3 nM.

`O=C1c2ccc(-n3c(=O)ccc4cnc5ccc(-c6ccc(Cl)cc6)cc5c43)cc2C(=O)N1C1CC1` [Compound 384] registered an EC50 in data set [3] (setting [5]) of 1320 nM.

On to `Cn1c(=O)n(-c2ccc(N3CCNCC3)c(C#N)c2)c2c3cc(-c4cccc(C#N)c4)ccc3ncc21` [Compound 418], for which the mTOR in data set [2] is 0.7002 µM. In data set [3], this molecule returned an EC50 of 7.93 nM.

`Cc1ccc(C#N)cc1-n1c(=O)n(C)c2cnc3ccc(-c4ccc[nH]4)cc3c21` [Compound 419] returned a mTOR in data set [2] of 30.38 µM. Also, the EC50 in data set [3] was found to be 82.9 nM.

As to `Cc1ccc(C#N)cc1-n1c(=O)n(C)c2cnc3ccc(-c4cccn4C)cc3c21` [Compound 420], the mTOR in data set [2] is 30.22 µM. Besides, a half-maximal response in data set [3] (EC50) required 144 nM.

`Cc1cc(N2CCNCC2)c(C#N)cc1-n1c(=O)n(C)c2cnc3ccc(-c4cccs4)cc3c21` [Compound 421]: the mTOR in data set [2] came to 18.94 µM. This molecule yielded an EC50 in data set [3] of 18.9 nM.

Turning to `CC(=O)N1CCN(c2cc(C)c(-n3c(=O)n(C)c4cnc5ccc(-c6ccc(F)cc6)cc5c43)cc2C#N)CC1` [Compound 422], in data set [2], the mTOR came out at 1.87 µM. Further, the EC50 in data set [3] was 5.87 nM.

Molecule `CC(=O)N1CCN(c2cc(C)c(-n3c(=O)n(C)c4cnc5ccc(-c6cccc(C#N)c6)cc5c43)cc2C#N)CC1` [Compound 423] had a mTOR in data set [2] of 15.4 µM. For the same molecule, the EC50 in data set [3] is 50.4 nM.

In data set [2], `Cc1ccc(C#N)cc1-n1c(=O)n(C)c2cnc3ccc(-c4ccsc4)cc3c21` [Compound 424] displayed a mTOR of 12.51 µM. The same molecule gave an EC50 in data set [3] of 23 nM.

The molecule `Cc1ccc(C#N)cc1-n1c(=O)n(C)c2cnc3ccc(-c4ccoc4)cc3c21` [Compound 425] had a mTOR in data set [2] of 5 µM. Besides, a half-maximal response in data set [3] (EC50) required 48.4 nM.

For the molecule `Cc1cc(N2CC(N)C2)c(C#N)cc1-n1c(=O)n(C)c2cnc3ccc(-c4cccc(C#N)c4)cc3c21` [Compound 426], the mTOR in data set [2] amounted to 6.418 µM. The same molecule registered an EC50 in data set [3] of 29.4 nM.

In data set [2], `Cc1cc(N2CCNCC2)c(C#N)cc1-n1c(=O)n(C)c2cnc3ccc(-c4ccc(F)c(C#N)c4)cc3c21` [Compound 427] yielded a mTOR of 30.6 µM. Besides, in data set [3], the 50% effective concentration (EC50) is 75.2 nM.

As to `Cc1cc(N2CC(N)C2)c(C#N)cc1-n1c(=O)n(C)c2cnc3ccc(-c4ccc(F)cc4)cc3c21` [Compound 428], the mTOR in data set [2] stood at 11 µM. Besides, in data set [3], a half-maximal effect (EC50) was put at 27.8 nM.

Turning to `CC(=O)N1CCN(c2cc(C)c(-n3c(=O)n(C)c4cnc5ccc(-c6ccc(Cl)cc6)cc5c43)cc2C#N)CC1` [Compound 429], the mTOR in data set [2] was 12.57 µM. For the same molecule, the EC50 in data set [3] was found to be 10.5 nM.

Take `Cc1cc(NCCN(C)C)c(C#N)cc1-n1c(=O)n(C)c2cnc3ccc(-c4cccc(C#N)c4)cc3c21` [Compound 430]: in data set [2], the mTOR worked out at 4.622 µM. Further, the response in data set [3] was half-maximal at 58.5 nM (EC50).

In data set [2], `Cc1ccc(C#N)cc1-n1c(=O)n(C)c2cnc3ccc(-c4cccc(S(N)(=O)=O)c4)cc3c21` [Compound 433] gave a mTOR of 6.1 µM. Besides, the 50% effective concentration (EC50) in data set [3] was 17.1 nM.

The values above are taken from patent US11753408B2, “Compounds and method for blocking transmission of malarial parasite” (The United States of America, as represented by the …, priority 2016, dated 2023).
